Assays:
[1] = tested on: hPBMCs; experiment: Immunogenicity test in hPBMCs (IL-6 and TNF-α ELISA of supernatant); format: cell-based, human; conditions: donor 1 hPBMCs, 18-20 h
Protocol: 1 Experimental material • 1.1 Double-stranded siRNA conjugates • 1.2 hPBMCs, purchased from Shanghai Sailybio Medical Co., LTD. • 1.3 Main reagents: Penicillin-Streptomycin (Cat. No.: 15140122), RNase-free water (Cat. No.: AM9938), IL-6 ELISA kit (Cat. No.: 555220), TNF-α ELISA kit (Cat. No.: 555212), LPS (Cat. No.: L2630), etc. 2 Experimental method • 2.1 Compound Preparation: Compounds were prepared as stock solutions with enzyme-free water. Compound weight = powder weight * purity. The concentration of prepared solutions was 900 µg/mL, followed by three-fold serial dilution with enzyme-free water. Each concentration was diluted 10-fold with 1640 medium, resulting in a final enzyme-free water content of 5.0%. • 2.2 Experimental procedure: • 2.2.1 PBMC cells were resuscitated one day in advance and incubated overnight in 1640 complete medium. • 2.2.2 On the day of the experiment, PBMC cells were centrifuged at 300 × g for 8 minutes, and the cell density was adjusted to 1.6 × 10^6 mL with 1640 complete medium. The cells were then added to a 96-well plate, 125 µL per well, and incubated in a 37 °C, 5% CO2 incubator for 15 minutes. • 2.2.3 The diluted test compounds were added to the 96-well plate according to the plate map, all in duplicate, 125 µL for each well; the positive control group and the blank group were added with an equal volume of 1640 complete culture medium containing the same amount of enzyme-free water. • 2.2.4 After gently shaking, the well plates were incubated in an incubator at 37 °C for 18-20 h. The supernatant was collected by centrifugation, and secretions of TNF-α and IL-6 were detected by ELISA. • 2.2.5 Data were analyzed using GraphPad Prism 8 software. 3 Experimental results Table 10. IL-6 and TNF-α levels in the cell supernatant of donor 1 hPBMCs treated with different doses of test compounds

[2] = tested on: human LPA gene (Genbank number: NM_005577.4); experiment: Inhibitory activity against LPA mRNA, psiCHECK-2 dual-luciferase reporter vector in Huh7 cells; format: cell-based; conditions: Huh7 cells transfected with LPA_psiCHECK-2 plasmid, RNAiMAX transfection
Protocol: A stock solution was prepared by dissolving in PBS and stored at -20 °C.
The human LPA gene (Genbank number: NM_005577.4) was cloned into the psiCHECK™-2 vector.
Huh7 cells were cultured in DMEM (Gibco-11995-065, 500 mL) medium, supplemented with FBS (ExCellBio-FSP500, 57 mL), Penicillin-Streptomycin solution (Hyclone-SV30010, 5.7 mL), GlutaMAX™ (Gibco-35050-061, 5.7 mL) and Non-Essential Amino Acids Solution (Gibco-11140050, 5.7 mL).
On Day 1, a method for transfection of the LPA_PSICHECK (TM)-2 plasmid is briefly described as follows: Huh7 cells were washed with DPBS, followed by digestion with 0.05% trypsin, gently pipetted into single cells in DMEM containing 10% FBS, and counted. Plasmid DNA was transferred into Huh7 cells using Fugene HD. The transfected cells were seeded into 96-well plates at a density of 10,000 cells per well, with 100 µL culture medium per well. The cells were incubated overnight in a 5% CO2 incubator at 37 °C.
On Day 2, the test compounds were diluted serially with PBS to 3 concentrations.
RNAiMAX transfection reagent was prepared by blending homogeneously with Opti-MEM at a ratio of RNAiMAX: Opti-MEM=3:47 in a 15 mL centrifuge tube as needed. The compounds were mixed with the RNAiMAX/Opti-MEM (1:1) and incubated for 15 min. The compound-containing RNAiMAX/Opti-MEM mixture was diluted 10-fold with fresh medium and blended homogeneously.
The medium in each well was aspirated, and then 100 µL of the fresh compound-containing medium was added, and then incubated in a 5% CO2, 37 °C incubator.
Experimental procedures refer to DUAL-GLO® Dual Luciferase Assay System instructions, briefly described as follows: Taking out the cells from the incubator, aspirating and discarding the supernatant, adding 75µL fresh culture medium and 75µL detection reagent, shaking for 10 minutes in the dark, and after the cells had been fully lysed, transfering100µL sample to an opaque whiteboard for detecting the Firefly luminescence signal; adding 50 µL Dual-Glo®Stop & Glo® test reagent to each well and detecting the Renilla luciferase signal after shaking for 10 minutes in the dark. The ratio of the reporter signal to the internal control reporter signal was calculated for each well.
[formula] % Inhibition = (1-Sampleratio/RNAiMAXcontrolratio) × 100% [formula]

| Substance | EC50 [2] [nM] | further results |
| --- | --- | --- |
| Z41: siRNA conjugate: sense SEQ ID NO:49, ligand D01 at 3' end of sense strand, antisense SEQ ID NO:79 (sense CAGCCCCTTATTGTTATACGA; antisense NCGTATNACAATAAGGGGCNGTT; ligand D01 at sense 3' end; listed as RNA; modified_base 1: mod_base = OTHER; note = 2'-O-methylcytidine; modified_base 2: mod_base = OTHER; note = 2'-O-methyladenosine; modified_base 3: mod_base = OTHER; note = 2'-O-methylguanosine; modified_base 4..7: mod_base = OTHER; note = 2'-O-me; note = n is B29; note = 2'-deoxycytidine; modified_base 4: mod_base = OTHER; note = 2'-O-methyluridine; m) | 0.09 | IL-6 ([1]; 5 µg/mL): 1362.7 pg/mL; TNF alpha ([1]; 5 µg/mL): 37.3 pg/mL; IL-6 ([1]; 15 µg/mL): 2424.8 pg/mL; TNF alpha ([1]; 15 µg/mL): 94.0 pg/mL; IL-6 ([1]; 45 µg/mL): 1537.6 pg/mL; TNF alpha ([1]; 45 µg/mL): 44.7 pg/mL |
| Z21: siRNA conjugate: sense SEQ ID NO:36, ligand D01 at 3' end of sense strand, antisense SEQ ID NO:64 (sense NNCCCCTTATTGTTATACN; antisense TCTCGTANAACAATAAGGGGCTGTT; 2'-OMe/2'-F modified, ligand at sense 3' end, full pattern not given here) | 0.44 |  |
| Z20: siRNA conjugate: sense SEQ ID NO:27, ligand D01 at 3' end of sense strand, antisense SEQ ID NO:56 (sense CCCTTATTGTTATACG; antisense ATCCCTCGTANAACAATAAGGGGCTGTT; 2'-OMe/2'-F modified, ligand at sense 3' end, full pattern not given here) | 0.51 |  |
| Z51: siRNA conjugate: sense SEQ ID NO:49, ligand D01 at 3' end of sense strand, antisense SEQ ID NO:87 (sense CAGCCCCTTATTGTTATACGA; antisense TCGTATNACAATAAGGGGCNGTT; ligand D01 at sense 3' end; listed as RNA; modified_base 1: mod_base = OTHER; note = 2'-O-methylcytidine; modified_base 2: mod_base = OTHER; note = 2'-O-methyladenosine; modified_base 3: mod_base = OTHER; note = 2'-O-methylguanosine; modified_base 4..7: mod_base = OTHER; note = 2'-O-me; note = 2'-O-methyluridine; note = 2'-deoxycytidine; modified_base 4: mod_base = OTHER; note = 2'-O-methyl) | 0.31 |  |
| Z2: siRNA conjugate: sense SEQ ID NO:28, ligand D08 at 3' end of sense strand, antisense SEQ ID NO:56 (sense CCCCTTATTGTTATAC; antisense ATCCCTCGTANAACAATAAGGGGCTGTT; 2'-OMe/2'-F modified, ligand at sense 3' end, full pattern not given here) | 0.48 |  |
| Z17: siRNA conjugate: sense SEQ ID NO:36, ligand D01 at 3' end of sense strand, antisense SEQ ID NO:63 (sense NNCCCCTTATTGTTATACN; antisense ATCCCTCGTANAACAATAAGGGGCTG; 2'-OMe/2'-F modified, ligand at sense 3' end, full pattern not given here) | 1.5 |  |
| Z26: siRNA conjugate: sense SEQ ID NO:42, ligand D18 at 3' end of sense strand, antisense SEQ ID NO:65 (sense CCCTTATTGTTANACGA; antisense TCTCGTATNACAATAAGGGGCTT; ligand D18 at sense 3' end; listed as RNA; modified_base 1..2: mod_base = OTHER; note = 2'-O-methylcytidine; modified_base 3: mod_base = OTHER; modified_base 4: mod_base = OTHER; note = 2'-O-methyluridine; modified_base 5: mod_base = OTHER; note = 2'-fluorou; modified_base 1: mod_base = OTHER; note = 2'-fluorocytidine; note = 2'-O-methylg) | 2.83 |  |
| Z18: siRNA conjugate: sense SEQ ID NO:36, ligand D01 at 3' end of sense strand, antisense SEQ ID NO:61 (sense NNCCCCTTATTGTTATACN; antisense ATCCCTCGTANAACAATAAGGGGCTGTT; 2'-OMe/2'-F modified, ligand at sense 3' end, full pattern not given here) | 0.25 |  |
| Z49: siRNA conjugate: sense SEQ ID NO:51, ligand D01 at 3' end of sense strand, antisense SEQ ID NO:85 (sense CCTGCCAAGCTTGGTCATCTA; antisense NAGATGNCCAAGCTTGGCNGGTT; ligand D01 at sense 3' end; listed as RNA; modified_base 1..2: mod_base = OTHER; note = 2'-O-methylcytidine; modified_base 3: mod_base = OTHER; note = 2'-O-methyluridine; modified_base 4: mod_base = OTHER; note = 2'-O-methylguanosine; modified_base 5..6: mod_base = OTHER; note = 2'-O-m; modified_base 1: mod_base = OTHER; note = n is B36; modified_base 2: mod_base = OTHER; note = 2'-deoxyadenosine; note = 2'-O-methyladenosine) | 0.63 |  |

From patent EP4707393A1, “DOUBLE-STRANDED SIRNA, CONJUGATE THEREOF AND USE THEREOF” (CMS Research & Development Pte. Ltd., priority 2023, dated 2024)
